From the PolyMetriX glass transition set
± gives the standard deviation of the reports.

`*c1ccc(Oc2ccc(Oc3ccc(P(=O)(c4ccccc4)c4ccc(Oc5ccc(Oc6ccc(-c7nc8ccc(-c9ccc%10nc(*)oc%10c9)cc8o7)cc6)cc5)cc4)cc3)cc2)cc1` (repeat unit) showed a glass transition temperature of 223.00 °C. `*CC(=O)C(*)C` (repeat unit) showed a glass transition temperature of 23.00 °C. Molecule `*CCCCCCCCCCCCNC(=O)c1ccc(C(=O)N*)c(Oc2ccccc2)c1` (repeat unit) has a glass transition temperature of 75.00 °C. Molecule `*Cc1cc2cc(C(=O)Nc3ccc(Oc4ccc(NC(=O)c5cc6cc(*)c(OC(=O)COc7ccc8ccc(=O)oc8c7)cc6oc5=O)cc4)cc3)c(=O)oc2cc1OC(=O)COc1ccc2ccc(=O)oc2c1` (repeat unit) has a glass transition temperature of 226.00 °C. Molecule `*c1cc(CCCCBr)c(*)s1` (repeat unit) has a glass transition temperature of 19.00 °C. Molecule `*Oc1c(Cl)cc(C2(c3cc(Cl)c(OC(*)=O)c(Cl)c3)CCCCC2)cc1Cl` (repeat unit) has a glass transition temperature of 163.00 °C. `*CC(*)c1ccccc1C(=O)OCCN(C)C` (repeat unit) gave a glass transition temperature of 69.00 °C. In the case of `*CC(*)(C)C(=O)OCCCCCCOc1ccc(/N=N/c2ccc(C3OCC4(CO3)CC3C=CC4C3)cc2)cc1` (repeat unit), the glass transition temperature is reported as 118.50 °C. `*CCCCCCCOc1ccc(-c2ccc(O*)c3ccccc23)c2ccccc12` (repeat unit) showed a glass transition temperature of 129.50 °C. With `*CC1CCC(COC(=O)CCC(=O)O*)CC1` (repeat unit) the glass transition temperature was -1.00 °C. For `*CCCCCCn1ccc(-c2ccc(-c3ccn(*)n3)cc2)n1` (repeat unit), the glass transition temperature was 55.00 °C. Work on `*Cc1ccc(COC(=O)Cc2ccc(C(=O)O*)cc2)cc1` (repeat unit) yielded a glass transition temperature of 47.00 °C. In the case of `*CC(*)c1ccccc1OC(C)=O` (repeat unit), the glass transition temperature is reported as 118.00 °C. With `*CCCCCOC(=O)c1ccc(-c2ccc(C(=O)O*)cc2)cc1` (repeat unit) the glass transition temperature was 47.50 °C. `*CC(*)(C)C(=O)OCCCc1ccc(/N=N/c2ccc(OC(F)(F)F)cc2)cc1` (repeat unit) showed a glass transition temperature of 211.50 °C. Molecule `*C(=O)c1ccc2c(c1)C(=O)N(c1ccc(C(C)(C)c3cccc(C(C)(C)c4ccc(N5C(=O)c6ccc(*)cc6C5=O)cc4)c3)cc1)C2=O` (repeat unit) has a glass transition temperature of 316.50 °C. `*CC(*)c1ccccc1C(=O)OCCC(C)C` (repeat unit) showed a glass transition temperature of 68.00 °C. In the case of `*CCCCCCNC(=O)C(=O)N*` (repeat unit), the glass transition temperature is reported as 250.00 °C. For `*CCCCCCOC(=O)OCCCCCCCCOC(=O)OCCCCCCOc1ccc(Oc2ccc(O*)cc2)cc1` (repeat unit), the glass transition temperature was -17.00 °C. Molecule `*c1cccc(OCCCCCCCCCCOc2cccc(N3C(=O)c4ccc(-c5ccc6c(c5)C(=O)N(*)C6=O)cc4C3=O)c2)c1` (repeat unit) has a glass transition temperature of 125.00 °C. Molecule `*Oc1ccc(C(=O)c2ccc(NC(=O)c3ccc(C(=O)Nc4ccc(C(=O)c5ccc(*)cc5)cc4)cc3)cc2)cc1` (repeat unit) has a glass transition temperature of 187.00 °C. With `*CC(*)CCCCCCCCCCCCCC` (repeat unit) the glass transition temperature was -24.00 °C. `*Oc1ccc(-c2ccc(OC(=O)Nc3cccc(P(=O)(c4ccccc4)c4cccc(NC(*)=O)c4)c3)cc2)cc1` (repeat unit) gave a glass transition temperature of 72.00 °C. With `*CCCC(C)CN1C(=O)c2ccc(C(=O)Oc3ccc4cc(OC(=O)c5ccc6c(c5)C(=O)N(*)C6=O)ccc4c3)cc2C1=O` (repeat unit) the glass transition temperature was 130.00 °C. `*c1cc(CC(=O)OCC)c(*)s1` (repeat unit) gave a glass transition temperature of 56.70 °C. For `*c1cccc(Oc2cccc(N3C(=O)c4ccc(Oc5ccc6c(c5)C(=O)N(*)C6=O)cc4C3=O)c2)c1` (repeat unit), the glass transition temperature was 206.00 ± 1.4 °C. In the case of `*CC(*)C(=O)c1ccc(OC)cc1` (repeat unit), the glass transition temperature is reported as 46.00 °C. For `*CC(*)c1ccc(C(=O)Cc2ccccc2)cc1` (repeat unit), the glass transition temperature was 78.00 °C. For `*Oc1ccc(C(C)(C)c2ccc(Oc3ccc(C(=O)c4ccc(C(=O)c5ccc(*)cc5)cc4)cc3)cc2)cc1` (repeat unit), the glass transition temperature was 160.00 °C. In the case of `*Oc1ccc(C2(c3ccc(OC(*)=O)cc3)c3ccccc3-c3ccccc32)cc1` (repeat unit), the glass transition temperature is reported as 355.00 °C. For `*CCOCCOCCOC(=O)c1cc(/N=N/c2ccc(OCC)cc2)ccc1-c1ccc(/N=N/c2ccc(OCC)cc2)cc1C(=O)O*` (repeat unit), the glass transition temperature was 65.00 °C. `*c1ccc(-c2ccc(N3C(=O)c4ccc(-c5cccc6c5C(=O)N(*)C6=O)cc4C3=O)c(C)c2)cc1C` (repeat unit) showed a glass transition temperature of 384.00 °C. `*CC(*)C(=O)OC12CC3CC(C)(CC(C)(C3)C1)C2` (repeat unit) showed a glass transition temperature of 104.00 °C. For `*N1CCOC1(*)CC` (repeat unit), the glass transition temperature was 55.00 °C. In the case of `*c1ccc(Oc2ccc(N3C(=O)c4ccc(S(=O)(=O)c5ccc6c(c5)C(=O)N(*)C6=O)cc4C3=O)cc2)cc1` (repeat unit), the glass transition temperature is reported as 283.50 °C. In the case of `*CCOCCOC(=O)CC(=O)O*` (repeat unit), the glass transition temperature is reported as -41.50 °C. In the case of `*C/C=C/C(CC)S(*)(=O)=O` (repeat unit), the glass transition temperature is reported as 70.10 °C. In the case of `*/C=C/c1cccc(/C=C/[Si](C)(C)c2cccc([Si](*)(C)C)c2)c1` (repeat unit), the glass transition temperature is reported as 28.70 °C. Molecule `*c1cc(Br)c(-c2c(Br)cc(N3C(=O)c4ccc(-c5ccc6c(c5)C(=O)N(*)C6=O)cc4C3=O)cc2C(=O)OCCCC)c(C(=O)OCCCC)c1` (repeat unit) has a glass transition temperature of 196.00 °C. For `*C(=O)CCCCCCCCC(=O)N1CCN(*)CC1` (repeat unit), the glass transition temperature was 82.00 °C. In the case of `*c1cc(OCCCCCCCCCCCC)cc(N2C(=O)c3ccc(Oc4ccc5c(c4)C(=O)N(*)C5=O)cc3C2=O)c1` (repeat unit), the glass transition temperature is reported as 162.00 °C. In the case of `*Oc1ccc(C(C)(C)c2ccc(Oc3ccc4c(=O)n5c6cc(-c7ccc8c(c7)nc7c9ccc(*)c%10cccc(c(=O)n87)c%109)ccc6nc5c5cccc3c45)cc2)cc1` (repeat unit), the glass transition temperature is reported as 380.00 °C. With `*OC(COC(=O)c1cc(C(*)=O)cc(C(C)(C)C)c1)COc1ccc(/N=N/c2ccc(C#N)cc2)cc1` (repeat unit) the glass transition temperature was 137.00 °C. `*C(=O)c1ccc2c(c1)C(=O)N(c1ccccc1Cc1ccccc1N1C(=O)c3ccc(*)cc3C1=O)C2=O` (repeat unit) gave a glass transition temperature of 285.00 °C. With `*CC(*)(C)C(=O)OCCCCCC(=O)Oc1ccc(OC(=O)c2ccc(OCC)cc2)cc1` (repeat unit) the glass transition temperature was 43.00 °C. For `*CCCCCCCCCCOc1ccc(/C=C/c2ccc(OCCCCCCCCCCOP(=O)(O*)OCCCCCCCCCCOc3ccc(/N=N/c4ccccc4)cc3)cc2)cc1` (repeat unit), the glass transition temperature was 55.00 °C. Molecule `*c1ccc(Oc2ccc(C(=O)c3ccc(Oc4ccc(-c5c6c(c(*)c7ccccc57)C(=O)N(c5ccccc5C(F)(F)F)C6=O)cc4)cc3)cc2)cc1` (repeat unit) has a glass transition temperature of 260.00 °C. With `*C(=O)c1ccc2c(c1)C(=O)N(c1ccc(Cc3ccc(Cc4ccc(N5C(=O)c6ccc(*)cc6C5=O)cc4)cc3)cc1)C2=O` (repeat unit) the glass transition temperature was 347.00 °C. For `*CCC1CC(*)C2CCCC12` (repeat unit), the glass transition temperature was 101.00 °C. Work on `*C(=O)c1ccc2c(c1)C(=O)N(c1ccc(C(c3ccc(N4C(=O)c5ccc(*)cc5C4=O)cc3)(C(F)(F)F)C(F)(F)F)cc1)C2=O` (repeat unit) yielded a glass transition temperature of 308.03 °C. In the case of `*c1ccc(C(=O)Nc2cccc(Oc3ccc(S(=O)(=O)c4ccc(Oc5cccc(NC(=O)c6ccc(N7C(=O)c8ccc(-c9ccc%10c(c9)C(=O)N(*)C%10=O)cc8C7=O)cc6)c5)cc4)cc3)c2)cc1` (repeat unit), the glass transition temperature is reported as 262.00 °C. Molecule `*CCCCCCCCCCOC(=O)NCc1ccc(CNC(=O)O*)cc1` (repeat unit) has a glass transition temperature of 49.00 °C. With `*Oc1ccc(S(=O)(=O)c2ccc(Oc3ccc(C4(c5ccc(*)cc5)CC5CCC4C5)cc3)cc2)cc1` (repeat unit) the glass transition temperature was 250.00 °C. In the case of `*c1ccc(Oc2ccc(C(c3ccc(Oc4ccc(-c5nnc(*)n5-c5ccc(S(C)(=O)=O)cc5)cc4)cc3)(C(F)(F)F)C(F)(F)F)cc2)cc1` (repeat unit), the glass transition temperature is reported as 226.00 °C. `*Oc1ccc(S(=O)(=O)c2ccc(Oc3ccc(-c4ccc(*)cc4)cc3)cc2N)c(N)c1` (repeat unit) showed a glass transition temperature of 242.20 °C. `*c1ccc(-c2ccc(-c3nc4ccc(-c5ccc6nc(*)c(-c7ccccc7)nc6c5)cc4nc3-c3ccccc3)cc2)cc1` (repeat unit) gave a glass transition temperature of 404.00 °C. Molecule `*CC1CC2CC1C1CCC(CN3C(=O)c4ccc(Oc5ccc6c(c5)C(=O)N(*)C6=O)cc4C3=O)C21` (repeat unit) has a glass transition temperature of 201.00 °C. Molecule `*c1ccc(-c2nc3cc4nc(*)c(-c5ccccc5)nc4cc3nc2-c2ccccc2)cc1` (repeat unit) has a glass transition temperature of 395.00 °C. `*CC(*)C(=O)OCCCCCCSCC#N` (repeat unit) gave a glass transition temperature of -59.00 °C. Molecule `*c1ccc(-c2nc3cc(Oc4ccc(NC(=O)c5ccc6c(c5)C(=O)N(c5ccc(C(c7ccc(N8C(=O)c9ccc(C(=O)Nc%10ccc(Oc%11ccc%12nc(-c%13ccccc%13)c(*)nc%12c%11)cc%10)cc9C8=O)cc7)(C(F)(F)F)C(F)(F)F)cc5)C6=O)cc4)ccc3nc2-c2ccccc2)cc1` (repeat unit) has a glass transition temperature of 293.00 °C. Work on `*CCCCCCCCNC(=O)C(OC)C(OC)C(=O)N*` (repeat unit) yielded a glass transition temperature of 89.00 °C. Work on `*Oc1ccc(C(C)(C)c2ccc(OC(=O)CN(CC(*)=O)c3ccc(/N=N/c4ccc([N+](=O)[O-])cc4)cc3)cc2)cc1` (repeat unit) yielded a glass transition temperature of 152.00 °C. In the case of `*CCCCCNC(=O)C(OC)C(OC)C(=O)N*` (repeat unit), the glass transition temperature is reported as 113.00 °C. For `*Oc1cc(CCCCCCCC)cc(OC(=O)c2cccc(C(*)=O)c2)c1` (repeat unit), the glass transition temperature was 50.50 °C. Molecule `*c1cc(-c2ccc(C(=C3C=C(C(C)(C)C)C(=O)C(C(C)(C)C)=C3)c3cc(C(C)(C)C)c(O)c(C(C)(C)C)c3)cc2)c(*)s1` (repeat unit) has a glass transition temperature of -12.60 °C. In the case of `*O[Si](C)(C)C#Cc1ccc(C#C[Si](*)(C)C)cc1` (repeat unit), the glass transition temperature is reported as 126.00 °C. With `*CC(*)(C)C(=O)OCCCCCCOc1ccc(C(=O)Oc2ccc(OC)cc2)cc1` (repeat unit) the glass transition temperature was 46.00 °C. Work on `*CC(*)C(=O)OCCCCCCCCCCCn1c2ccccc2c2ccccc21` (repeat unit) yielded a glass transition temperature of 15.00 °C.
